Laboratory results from patent US20100004267A1, “LIQUID PREPARATION” (ASUBIO PHARMA CO., LTD., priority 2006, published 2010).
Like-named read-outs stand apart in the source and are kept apart here.

Experiments:
[1] = Examination of solubilizing agent: solubility of SUN N8075 (Test example 1); type: physicochemical; details: for solubility at 30 min: phosphate-buffered saline with solubilizing agent, 24 °C, kinetic from dmso stock, read-out: Concentration (solubility of SUN N8075)
Experimental: 8 mg/mL aqueous solution of SUN N8075 was prepared. On the other hand, for each solubilizing agent, an aqueous solution having approximately 0.4% of solubilizing agent was prepared.
10 mL of SUN N8075 aqueous solution and 10 mL of solution of each solubilizing agent were mixed to give Mixture A, and Mixture A was filtered through a filter of 0.22 μm.
6.24 g of sodium dihydrogen phosphate and 16.4 g of sodium chloride were weighed and water was added to make the volume precisely 1,000 mL. To this solution, 1 mol/L sodium hydroxide test solution was added dropwise and the pH value was adjusted to 7.4, which was named Mixture B.
Mixture of each 2.5 mL of Mixture A and Mixture B was provided as a test solution (in each test solution, the concentration of SUN N8075 corresponds to 2 mg/mL, and the concentration of solubilizing agent corresponds to 0.1%).
As for a solubilizing agent of which degree of improving solubility of SUN N8075 was high, tests with concentrations of the added solubilizing agent varied were additionally executed in accordance with the method as described above.

[2] = system: aorta of rat; assay: Blood vessel stimulus and precipitation at administration site (Test example 2); type: in vivo
Experimental: Saline, a solution in saline to which 0.1% of Tween80 was added, and a solution in saline to which 0.5, 1.0, 2.0 or 3.0% of β-cyclodextrin sulfobutyl ether sodium salt dissolving various concentrations described in Table 2 below of SUN N8075 were prepared, and administered to aorta of rat, and precipitation of SUN N8075 and presence of stimulus (blood vessel stimulus) on tissues at the site of administration were evaluated.

[3] = 0.1% Tween80 in saline, drug conc. 0.23 mg/mL, 72 hour
[4] = 0.1% Tween80 in saline, drug conc. 0.7 mg/mL, 72 hour
[5] = 0.5% Captisol in saline, drug conc. 0.7 mg/mL, 24 hour
[6] = 1.0% Captisol in saline, drug conc. 0.7 mg/mL, 24 hour
[7] = 2.0% Captisol in saline, drug conc. 0.7 mg/mL, 24 hour
[8] = 3.0% Captisol in saline, drug conc. 0.23 mg/mL, 72 hour
[9] = 3.0% Captisol in saline, drug conc. 0.7 mg/mL, 72 hour

Cc1cc(OC[C@@H](O)CN2CCN(c3ccc(Cc4ccc(F)cc4)cc3)CC2)c(C)c(C)c1N [SUN N8075, (2S)-1-(4-amino-2,3,5-trimethylphenoxy)-3-{4-[4-(4-fluorobenzyl)phenyl]-1-piperazinyl}-2-propanol dimethane sulfonate]
Appearance of solution ([1]; Glycerin 0.1%, pH 6.8): colorless and clear
Appearance of solution ([1]; HCO-60 0.1%, pH 6.8): colorless and clear
Appearance of solution ([1]; HCO-60 0.2%, pH 6.9): colorless and clear
Appearance of solution ([1]; HCO-60 0.5%, pH 6.8): colorless and clear
Appearance of solution ([1]; Human serum albumin 0.1%, pH 6.8): colorless and clear
Appearance of solution ([1]; Macrogol 4000 0.1%, pH 6.8): colorless and clear
Appearance of solution ([1]; Mannitol 0.1%, pH 6.8): colorless and clear
Appearance of solution ([1]; Nicotinic amide 0.1%, pH 6.8): colorless and clear
Appearance of solution ([1]; No additive, pH 6.8): colorless and clear
Appearance of solution ([1]; Propylene glycol 0.1%, pH 6.9): colorless and clear
Appearance of solution ([1]; Tween80 0.1%, pH 6.8): clouded
Appearance of solution ([1]; Tween80 0.2%, pH 6.8): clouded
Appearance of solution ([1]; Tween80 0.5%, pH 6.8): clouded
Appearance of solution ([1]; Tween80 1.0%, pH 6.8): colorless and clear
solubility at 30 min ([1]; pH 6.5, aqueous with cosolvent or surfactant or cyclodextrin, β-Cyclodextrin derivative 10%, pH 6.5): 4850 µg/mL
solubility at 30 min ([1]; pH 6.8, aqueous with cosolvent or surfactant or cyclodextrin, HCO-60 0.5%, pH 6.8): 395 µg/mL
solubility at 30 min ([1]; pH 6.8, aqueous with cosolvent or surfactant or cyclodextrin, HCO-60 (polyoxyethylene hardened castor oil) 0.1%, pH 6.8): 184 µg/mL
solubility at 30 min ([1]; pH 6.8, aqueous with cosolvent or surfactant or cyclodextrin, Human serum albumin 0.1%, pH 6.8): 14 µg/mL
solubility at 30 min ([1]; pH 6.8, aqueous with cosolvent or surfactant or cyclodextrin, Tween80 0.1%, pH 6.8): 745 µg/mL
solubility at 30 min ([1]; pH 6.8, aqueous with cosolvent or surfactant or cyclodextrin, Tween80 0.2%, pH 6.8): 1830 µg/mL
solubility at 30 min ([1]; pH 6.8, aqueous with cosolvent or surfactant or cyclodextrin, Tween80 0.5%, pH 6.8): 1790 µg/mL
solubility at 30 min ([1]; pH 6.8, aqueous with cosolvent or surfactant or cyclodextrin, Tween80 1.0%, pH 6.8): 1820 µg/mL
solubility at 30 min ([1]; pH 6.8, aqueous with cosolvent or surfactant or cyclodextrin, β-Cyclodextrin derivative 0.5%, pH 6.8): 98 µg/mL
solubility at 30 min ([1]; pH 6.8, aqueous with cosolvent or surfactant or cyclodextrin, β-Cyclodextrin derivative 1.0%, pH 6.8): 240 µg/mL
solubility at 30 min ([1]; pH 6.9, aqueous with cosolvent or surfactant or cyclodextrin, HCO-60 0.2%, pH 6.9): 334 µg/mL
solubility at 30 min ([1]; pH 6.9, aqueous with cosolvent or surfactant or cyclodextrin, β-Cyclodextrin 0.1%, pH 6.9): 26 µg/mL
solubility at 30 min ([1]; pH 6.9, aqueous with cosolvent or surfactant or cyclodextrin, β-Cyclodextrin derivative 5.0%, pH 6.9): 1420 µg/mL
Appearance of solution ([1]; β-Cyclodextrin 0.1%, pH 6.9): colorless and clear
Appearance of solution ([1]; β-Cyclodextrin derivative 0.5%, pH 6.8): colorless and clear
Appearance of solution ([1]; β-Cyclodextrin derivative 1.0%, pH 6.8): colorless and clear
Appearance of solution ([1]; β-Cyclodextrin derivative 5.0%, pH 6.9): colorless and clear
Appearance of solution ([1]; β-Cyclodextrin derivative 10%, pH 6.5): colorless and clear
Appearance of solution ([1]; β-Cyclodextrin derivative (β-cyclodextrin sulfobutyl ether sodium salt) 0.1%, pH 6.8): colorless and clear
Blood vessel stimulation [2, 3]: Detected
Precipitation at administration site [2, 3]: None*^2
Blood vessel stimulation [2, 4]: Detected
Precipitation at administration site [2, 4]: None*^2
Blood vessel stimulation [2, 5]: None
Precipitation at administration site [2, 5]: None*^2
Blood vessel stimulation [2, 6]: None
Precipitation at administration site [2, 6]: None*^2
Blood vessel stimulation [2, 7]: None
Precipitation at administration site [2, 7]: None*^2
Blood vessel stimulation [2, 8]: None
Precipitation at administration site [2, 8]: None*^2
Blood vessel stimulation [2, 9]: None
Precipitation at administration site [2, 9]: None*^2
